Measurements: patent publication US20160194358A1, “LINEAR PEPTIDE ANTIBIOTCS” (priority 2013, published 2016)
Converted amounts (≈) assume the structure as drawn. Where two headings read alike, the source gives them in different places. *1 amine or outer side, *2 acyl side, *3 side chain or, on linkers, in order; H or OH if unused. Where a SMILES comes first, the peptide text is derived from it. [ ]: non-standard residue; d: D form. The star is where a group is joined. boroAla((+)-pinanediol) = C[C@H](N*)B1O[C@@H]2C[C@@H]3C[C@@H](C3(C)C)[C@]2(C)O1; Benzoyl(4-(4-Cl-Ph)) = O=C(c1ccc(-c2ccc(Cl)cc2)cc1)*; Ethanesulfonyl(2-NHDecyl) = CCCCCCCCCCNCCS(=O)(=O)*; Propanoyl(3-decylamino) = CCCCCCCCCCNCCC(=O)*; X27 = CCCCCCCCN1CCN([*:1])C(C(=O)[*:2])C1; X34 = CCCCc1ccc(-c2ccc(S(=O)(=O)*)cc2)cc1; X32 = CCCCCCN1CCN([*:1])C(C(=O)[*:2])C1; X30 = CCCCc1ccc(-c2ncc(C(=O)*)cn2)cc1; AlaCOCOOMe = COC(=O)C(=O)[C@H](C)N*; X26 = CCCCCCCCc1ccc(C(=O)*)c(C)c1; Myristoyl = CCCCCCCCCCCCCC(=O)*; X19 = CCCCCCCCCCN(C)CCC(=O)*; X22 = C[C@H](N*)C(=O)C(=O)O; Decanoyl = CCCCCCCCCC(=O)*; X37 = C[C@H](N*)B1OCCNCCO1; X17 = CCCCCCCCCNCCCC(=O)*; boroAla = C[C@H](N*)B(O)O; Dab = NCC[C@H](N)C(=O)O; Dap = NC[C@H](N)C(=O)O

Columns and labels:
[1] = test system: Escherichia coli strain MC4100 IMP-4213, which harbors an LptD mutation; conditions: E. coli MC4100 IMP-4213; 35° C., 22 hours
Method: (§1) In vitro antimicrobial activity of each compound was determined by measuring minimal inhibitor concentrations (MICs) using the broth micro-dilution technique as approved by the Clinical and Laboratory Standards Institute (CLSI). Antibacterial activity was measure against two strains of bacteria: 1) methicillin resistant Staphylococcus aureus (MRSA) strain USA300 (NRS384) and 2) Escherichia coli strain MC4100 IMP-4213, which harbors an LptD mutation. Bacterial inocula were prepared by scraping cells into 1 mL of testing media (cation adjusted Mueller Hinton Broth supplemented with 0.002% v/v Tween-80) and diluting to a final OD600nm of 0.01.
(§2) Test compounds were prepared in DMSO at a concentration of 10 mg/ml. These compound stocks were diluted into testing media at a concentration of 64 μg/ml and 9 serial 1:2 dilutions were made in the same media, in 96-well U bottom microtiter dishes. Bacterial inocula were added to the two fold serial dilutions of test compounds to a final density of OD OD600nm of 0.0005 and incubated stationarily at 35° C. for 22 hours, after which the plates were examined visually.

[2] = test system: methicillin resistant Staphylococcus aureus (MRSA) strain USA300 (NRS384)
Method: as §1, §2

[3] = MRSA USA300 (NRS384), 35° C., 22 hours

Row | SMILES | MIC (μg/mL) E. coli [1] | MIC (μg/mL) S. aureus ([2]; USA300, 22 h) | MIC (μg/mL) S. aureus [2, 3]
1 | CCCCCCCCCCNCCC(=O)N[C@@H](CCCCN)C(=O)N[C@H](C(=O)N[C@@H](C)C(=O)N[C@@H](CCN)C(=O)N[C@@H](C)C(=O)C(=O)O)[C@@H](C)O [Compound 255] ({Propanoyl(3-decylamino)}-KTA[Dab]-X22) | >64 µg/mL | 11 µg/mL (≈ 15.1 µM) | 
2 | CCCCCCCCCCN(C)CCC(=O)N[C@@H](CCCCN)C(=O)N[C@H](C(=O)N[C@@H](C)C(=O)N[C@@H](CCCCN)C(=O)N[C@@H](C)B1O[C@@H]2C[C@@H]3C[C@@H](C3(C)C)[C@]2(C)O1)[C@@H](C)O [Compound 240] (X19-KTAK-{boroAla((+)-pinanediol)}) | 32 µg/mL (≈ 36.5 µM) |  | 1.4 µg/mL (≈ 1.6 µM)
3 | CCCCCCCCCCNCCC(=O)N[C@@H](CN)C(=O)N[C@H](C(=O)N[C@@H](C)C(=O)N[C@@H](CCCCN)C(=O)N[C@@H](C)B(O)O)[C@@H](C)O [Compound 220] ({Propanoyl(3-decylamino)}-[Dap]TAK-boroAla) | 16 µg/mL (≈ 23.3 µM) | 1 µg/mL (≈ 1.46 µM) | 
4 | CCCCCCCCCCNCCC(=O)N[C@@H](CCCCN)C(=O)N[C@@H](C)C(=O)N[C@@H](CCCCN)C(=O)N[C@@H](C)B1O[C@@H]2C[C@@H]3C[C@@H](C3(C)C)[C@]2(C)O1 [Compound 268] | 8 µg/mL (≈ 10.5 µM) | 0.5 µg/mL (≈ 0.656 µM) | 
5 | COC(=O)C(=O)[C@H](C)NC(=O)[C@H](CCCCN)NC(=O)[C@H](C)NC(=O)[C@@H](NC(=O)[C@H](CCN)NC(=O)c1ccc(-c2ccc(Cl)cc2)cc1)[C@@H](C)O [Compound 246] ({Benzoyl(4-(4-Cl-Ph))}-[Dab]TAK-AlaCOCOOMe) | >64 µg/mL |  | 2.3 µg/mL (≈ 3.08 µM)
6 | CCCCc1ccc(-c2ncc(C(=O)N[C@@H](CCN)C(=O)N[C@@H](CCCCN)C(=O)N[C@@H](C)C(=O)N[C@@H](CCCCN)C(=O)N[C@@H](C)B3O[C@@H]4C[C@@H]5C[C@@H](C5(C)C)[C@]4(C)O3)cn2)cc1 [Compound 271] (X30-[Dab]KAK-{boroAla((+)-pinanediol)}) | 0.13 µg/mL (≈ 0.146 µM) |  | 0.25 µg/mL (≈ 0.281 µM)
7 | CCCCc1ccc(-c2ccc(S(=O)(=O)N[C@@H](CCCCN)C(=O)N[C@H](C(=O)N[C@@H](C)C(=O)N[C@@H](CCCCN)C(=O)N[C@@H](C)B3O[C@@H]4C[C@@H]5C[C@@H](C5(C)C)[C@]4(C)O3)[C@@H](C)O)cc2)cc1 [Compound 236] (X34-KTAK-{boroAla((+)-pinanediol)}) | 16 µg/mL (≈ 17.3 µM) |  | 0.5 µg/mL (≈ 0.541 µM)
8 | CCCCCCCCCCNCCC(=O)N[C@@H](CCCCN)C(=O)N[C@H](C(=O)N[C@@H](C)C(=O)N[C@@H](CC(N)=O)C(=O)N[C@@H](C)B(O)O)[C@@H](C)O [Compound 221] ({Propanoyl(3-decylamino)}-KTAN-boroAla) | 64 µg/mL (≈ 89.5 µM) | 4 µg/mL (≈ 5.6 µM) | 
9 | CCCCCCCCCCNCCC(=O)N[C@@H](CCCCN)C(=O)N[C@@H](C)C(=O)N[C@@H](CCCCN)C(=O)N[C@@H](C)B(O)O [Compound 269] | 11 µg/mL (≈ 17.5 µM) |  | 0.35 µg/mL (≈ 0.558 µM)
10 | CCCCCCCCc1ccc(C(=O)N[C@@H](CCCCN)C(=O)N[C@H](C(=O)N[C@@H](C)C(=O)N[C@@H](CCCCN)C(=O)N[C@@H](C)B2O[C@@H]3C[C@@H]4C[C@@H](C4(C)C)[C@]3(C)O2)[C@@H](C)O)c(C)c1 [Compound 274] (X26-KTAK-{boroAla((+)-pinanediol)}) | 0.5 µg/mL (≈ 0.567 µM) |  | 0.13 µg/mL (≈ 0.147 µM)
11 | CCCCCCCCCCNCCC(=O)N[C@@H](CCCCN)C(=O)N[C@H](C(=O)N[C@@H](C)C(=O)N[C@@H](CN)C(=O)N[C@@H](C)C(=O)C(=O)OC)[C@@H](C)O [Compound 256] ({Propanoyl(3-decylamino)}-KTA[Dap]-AlaCOCOOMe) | >64 µg/mL | 10 µg/mL (≈ 13.7 µM) | 
12 | CCCCCCCCCCCCCC(=O)N[C@@H](CCN)C(=O)N[C@H](C(=O)N[C@@H](C)C(=O)N[C@@H](CCCCN)C(=O)N[C@@H](C)B1O[C@@H]2C[C@@H]3C[C@@H](C3(C)C)[C@]2(C)O1)[C@@H](C)O [Compound 272] (Myristoyl-[Dab]TAK-{boroAla((+)-pinanediol)}) | 0.13 µg/mL (≈ 0.156 µM) |  | 0.13 µg/mL (≈ 0.156 µM)
13 | CCCCCCN1CCNC(C(=O)N[C@@H](CCCCN)C(=O)N[C@H](C(=O)N[C@@H](C)C(=O)N[C@@H](CCCCN)C(=O)N[C@@H](C)B2O[C@@H]3C[C@@H]4C[C@@H](C4(C)C)[C@]3(C)O2)[C@@H](C)O)C1 (stereo partly drawn) [Compound 280] (H-[X32]KTAK-{boroAla((+)-pinanediol)}) | >64 µg/mL |  | 64 µg/mL (≈ 75.5 µM)
14 | CCCCCCCCc1ccc(C(=O)N[C@@H](CCN)C(=O)N[C@H](C(=O)N[C@@H](C)C(=O)N[C@@H](CCCCN)C(=O)N[C@@H](C)B2O[C@@H]3C[C@@H]4C[C@@H](C4(C)C)[C@]3(C)O2)[C@@H](C)O)c(C)c1 [Compound 273] (X26-[Dab]TAK-{boroAla((+)-pinanediol)}) | 0.13 µg/mL (≈ 0.152 µM) |  | 0.13 µg/mL (≈ 0.152 µM)
15 | CCCCCCCCCC(=O)NCC(=O)N[C@@H](CCCCN)C(=O)N[C@H](C(=O)N[C@@H](C)C(=O)N[C@@H](CCCCN)C(=O)N[C@@H](C)B1O[C@@H]2C[C@@H]3C[C@@H](C3(C)C)[C@]2(C)O1)[C@@H](C)O [Compound 259] (Decanoyl-GKTAK-{boroAla((+)-pinanediol)}) | 64 µg/mL (≈ 74.2 µM) |  | 2.4 µg/mL (≈ 2.78 µM)
16 | CCCCCCCCCCNCCC(=O)N[C@@H](CCCCN)C(=O)N[C@H](C(=O)N[C@@H](C)C(=O)N[C@@H](CCN)C(=O)N[C@@H](C)C(=O)C(=O)OC)[C@@H](C)O [Compound 254] ({Propanoyl(3-decylamino)}-KTA[Dab]-AlaCOCOOMe) |  | 16 µg/mL (≈ 21.5 µM) | 
17 | CCCCCCCCN1CCNC(C(=O)N[C@@H](CCCCN)C(=O)N[C@H](C(=O)N[C@@H](C)C(=O)N[C@@H](CCCCN)C(=O)N[C@@H](C)B2O[C@@H]3C[C@@H]4C[C@@H](C4(C)C)[C@]3(C)O2)[C@@H](C)O)C1 (stereo partly drawn) [Compound 279] (H-[X27]KTAK-{boroAla((+)-pinanediol)}) | >64 µg/mL |  | 10 µg/mL (≈ 11.4 µM)
18 | CCCCc1ccc(-c2ccc(C(N[C@@H](CCCCN)C(=O)N[C@H](C(=O)N[C@@H](C)C(=O)N[C@@H](CC(C)C)C(=O)N[C@@H](C)B3O[C@@H]4C[C@@H]5C[C@@H](C5(C)C)[C@]4(C)O3)[C@@H](C)O)C(F)(F)F)cc2)cc1 (stereo partly shown) [Compound 277] | 4 µg/mL (≈ 4.32 µM) |  | 1.4 µg/mL (≈ 1.51 µM)
19 | CCCCCCCCCNCCCC(=O)N[C@@H](CCCCN)C(=O)N[C@H](C(=O)N[C@@H](C)C(=O)N[C@@H](CCCCN)C(=O)N[C@@H](C)B1O[C@@H]2C[C@@H]3C[C@@H](C3(C)C)[C@]2(C)O1)[C@@H](C)O [Compound 227] (X17-KTAK-{boroAla((+)-pinanediol)}) | 64 µg/mL (≈ 74.2 µM) | 2 µg/mL (≈ 2.32 µM) | 
20 | CCCCCCCCCCNCCS(=O)(=O)N[C@@H](CCCCN)C(=O)N[C@H](C(=O)N[C@@H](C)C(=O)N[C@@H](CCCCN)C(=O)N[C@@H](C)C(=O)C(=O)OC)[C@@H](C)O [Compound 250] ({Ethanesulfonyl(2-NHDecyl)}-KTAK-AlaCOCOOMe) | >64 µg/mL | 0.5 µg/mL (≈ 0.62 µM) | 
21 | C[C@H](NC(=O)[C@H](CCCCN)NC(=O)[C@H](C)NC(=O)[C@@H](NC(=O)[C@H](CCN)NC(=O)c1ccc(-c2ccc(Cl)cc2)cc1)[C@@H](C)O)B1OCCNCCO1 [Compound 131] ({Benzoyl(4-(4-Cl-Ph))}-[Dab]TAK-X37) |  |  | 1 µg/mL (≈ 1.29 µM)
